Source: PMC3118801, “Tyrosine Kinase Syk Non-Enzymatic Inhibitors and Potential Anti-Allergic Drug-Like Compounds Discovered by Virtual and In Vitro Screening” (PLoS ONE, 2011)
Values after ≈ are worked out from the molar mass of the structure shown. Where two headings read alike, the source gives them in different places.

How the values were obtained:
RBL-2H3 mast cells [1] = test system: RBL-2H3 mast cells; set-up: method as in PMID 18539317; conditions: cited from earlier work
[2] = target: T1, Syk (GST:Syk 6-242 fusion protein) (Homo sapiens, UniProt P43405); assay: ELISA-based Antibody Displacement Assay (binding of scFv G4G11 to Syk); conditions: 10 µM small molecule, 100 nM G4G11
T1 construct: Recombinant GST:Syk 6-242 fusion protein [34] was immobilized on an ELISA plate; made in house
Method: To determine the ability of the compounds to affect the binding of scFv G4G11 to Syk in vitro, we tested them individually in an ELISA-based Antibody Displacement Assay (see Materials and Methods). For this purpose, all 1000 compounds were reconstituted in DMSO, and they were tested at a final concentration of 10 µM in PBS. Compound C-13 was reconstituted in DMF and was used in parallel as a control. The capacity of each compound to inhibit the binding of G4G11 to Syk was evaluated in comparison to the binding of G4G11 to Syk in PBS (final concentration of 100 nM) containing the appropriate concentrations of DMSO or DMF.
Recombinant GST:Syk 6-242 fusion protein [34] was immobilized on an ELISA plate at final concentration of 10 µg ml^−1. For the screening assay, small molecules diluted in PBS at final concentration of 10 µM were added to the wells for one hour at RT, before adding myc-tagged scFv G4G11 at final concentration of 100 nM for one additional hour. The binding of G4G11 to Syk was evaluated by adding HRP-conjugated mAb 9E10 which detects the amino acid sequence EQKLISEEDLN of human c-myc protein located at the C-terminal end of the scFv.

Syk [3] = target: T2, Syk (Homo sapiens, UniProt P43405); assay: Direct binding to Syk by fluorescence spectroscopy
Method: Direct binding to Syk of a selection of these 85 compounds was investigated using fluorescence spectroscopy.
For each compound, the ChemBridge ID and the cluster to which it belongs are reported. Direct binding to Syk of some compounds was measured using fluorescence spectroscopy (Kd: dissociation constant). Antibody inhibition percentage reflects the capacity of each compound to inhibit the binding of scFv G4G11 to Syk (final concentrations of 10 µM for small molecules and 100 nM for G4G11). The ability of each compound to inhibit the liberation of allergic mediators from mast cells is measured (**: IC50 values of cell degranulation ≥20 µM). Some physicochemical properties computed with FAFDrugs2, as well as the possible ADMET problems detected by our tool are reported. The computations involved: molecular weight (MW), logP, topological polar surface area (tPSA), H-bond acceptors and donors (HBA, HBD). (PDF) Click here for additional data file.

RBL-2H3 mast cells [4] = assay: FcεRI-induced β-hexosaminidase release (mast cell degranulation); format: cell-based, rat
Method: The 85 compounds were then tested in a cellular functional assay in order to evaluate their ability to inhibit the liberation of allergic mediators from mast cells. The test is based on the measure of the liberation by exocytosis of the enzyme β-hexosaminidase following the stimulation of the FcεRI, the high affinity receptor for IgE at the surface of mast cells. To this aim, RBL-2H3 mast cells were incubated with each compound for one hour at a final concentration of 20 µM, and β-hexosaminidase release following FcεRI stimulation was measured.
The mouse IgE anti-DNP monoclonal antibody 2682-I was used as hybridoma culture supernatants which contained 1 µg ml^−1 IgE. RBL-2H3 rat basophilic leukaemia cells (ATCC) were maintained as monolayer cultures in RPMI 1640 medium supplemented with 10% fetal bovine serum (Gibco). Measurements of β-hexosaminidase release in RBL-2H3 cells were performed as described, except that after 12–16 h incubation with anti-DNP IgE (0.5 µg ml^−1), cells were incubated for 90 min at 37°C in RPMI medium supplemented with the indicated concentrations of small molecules or DMSO (0.25%). Cells were challenged for 45 min with DNP-BSA (50 ng ml^−1).

Syk [5] = target: T2, Syk; set-up: method as in PMID 18539317; conditions: cited from earlier work
anaphylactic shock = test system: anaphylactic shock; set-up: method as in PMID 18539317; conditions: administered orally to mice; cited from earlier work
[6] = Solubility measurement in PBS by HPLC; format: physicochemical; conditions: aqueous buffer, kinetic from dmso stock, from 10 mM DMSO stock, 25°C
Method: 4 µl of a 10 mM DMSO stock solution from of each sample were dissolved in 400 µl of PBS and sonicated for 5 minutes. The samples were centrifuged for 15 minutes at 4000 rpm at 25°C, then 250 µl of each sample were transferred to a 96 well plate. 10 µl of each sample were analyzed by HPLC and the sample concentrations were calculated against a series of caffeine standards ranging from 1 to 100 µM.

RBL-2H3 mast cells [7] = assay: Ionomycin-induced degranulation as control of the degranulation machinery (toxic effects); format: cell-based, rat; conditions: ionomycin treatment, concentrations up to 10 µM
Method: To address the possible toxic effects of these compounds on degranulation, we performed a dose-dependent experiment in which FcεRI-dependent degranulation of mast cells was performed in parallel with ionomycin-induced degranulation as a control of the degranulation machinery. […] The ADMET profile of our 10 bioactive compounds was analyzed further. […] In addition, the solubility was measured experimentally and the Lipinski “rule of five” descriptors were computed to probe further the molecules from cluster 2 (Table 1).
Figure 5 Compounds 7501888 and 7722851 impair FcεRI-induced mast cell degranulation. β-hexosaminidase release from mast cells was evaluated in comparison to ionomycin-induced degranulation as a control of the machinery.

[8] = Rattus norvegicus, Table 1, RBL-2H3, FcεRI stimulation, β-hexosaminidase release, read-out: IC50 Cell Degranulation
[9] = Table S1, class symbol, read-out: IC50 Cell Degranulation
[10] = Rattus norvegicus, RBL-2H3, Table S1, class symbol, read-out: IC50 Cell Degranulation

For `COC(=O)c1ccccc1-c1ccc(C=C2SC(=S)N(Cc3ccccc3)C2=O)o1` [C-13, methyl 2-{5-[(3-benzyl-4-oxo-2-thioxo-1,3-thiazolidin-5-ylidene)methyl]-2-furyl}benzoate, reference compound], the “FcεRI-induced mast cell degranulation in vitro” value (RBL-2H3 mast cells [1]) is listed as “inhibits”, the “Antibody Inhibition” value [2] is listed as 81% and the Kd (Syk [3]; Table 1) is listed as 4 µM. The IC50 (RBL-2H3 mast cells [4]; [8]) was 2 µM, the “effects on the enzymatic activity of Syk” value (Syk [5]) was “no effects” and the “anaphylactic shock in vivo” value (anaphylactic shock) was “inhibits”.

In the case of `COc1ccccc1C(=O)Nc1ccc(-c2nnc(SCC(=O)c3ccccc3)n2C)cc1` [compound 6282824], the solubility at 5 min [6] is reported as 4.5 µM (≈ 2.06 µg/mL), the “Antibody Inhibition” value [2] is reported as 67.5% and the Kd (Syk [3]; Table 1) is reported as 5.6 µM. For the same molecule, the IC50 (RBL-2H3 mast cells [4]; [8]) was 5 µM.

With `COc1ccc(S(=O)(=O)N(CCc2ccccc2)CC(=O)Nc2ccc(C(N)=O)cc2)cc1` [compound 6498669] the “Antibody Inhibition” value [2] was 63%, the Kd (Syk [3]; Table S1) was 0.8 µM and the IC50 (RBL-2H3 mast cells [4]; [9]) was no less than 20 µM.

In the case of `COc1ccc(OC)c(C2C(=C(O)c3ccc(C)cc3)C(=O)C(=O)N2Cc2cccnc2)c1` (stereo not shown) [compound 6652639], the “Antibody Inhibition” value [2] is reported as 70.5% and the IC50 (RBL-2H3 mast cells [4]; [9]) is reported as no less than 20 µM.

In the case of `COc1ccc(C2C(=C(O)c3ccc(F)cc3)C(=O)C(=O)N2CCN2CCOCC2)cc1OC` (stereo not shown) [compound 6654239], the “Antibody Inhibition” value [2] is reported as 50% and the IC50 (RBL-2H3 mast cells [4]; [9]) is reported as no less than 20 µM.

In the case of `N#CC1=C(N)Oc2[nH]nc(-c3ccccc3)c2C1c1cccc(OC(=O)c2ccco2)c1` (stereo not shown) [compound 6669449], the “Antibody Inhibition” value [2] is reported as 42% and the IC50 (RBL-2H3 mast cells [4]; [10]) is reported as no less than 20 µM.

In the case of `COc1ccc(C2C(=C(O)c3ccc(F)cc3)C(=O)C(=O)N2CCN2CCOCC2)c(OC)c1` (stereo not shown) [compound 6670673], the “Antibody Inhibition” value [2] is reported as 50% and the IC50 (RBL-2H3 mast cells [4]; [9]) is reported as no less than 20 µM.

With `COc1ccc(C2C(=C(O)c3ccc(C)cc3)C(=O)C(=O)N2CCN2CCOCC2)cc1` (stereo not shown) [compound 6670747] the “Antibody Inhibition” value [2] was 50% and the IC50 (RBL-2H3 mast cells [4]; [9]) was no less than 20 µM.

In the case of `COc1ccc(C2C(C(=O)c3cccs3)=C(O)C(=O)N2CCN2CCOCC2)cc1OC` (stereo not shown) [compound 6677533], the “Antibody Inhibition” value [2] is reported as 50% and the IC50 (RBL-2H3 mast cells [4]; [10]) is reported as no less than 20 µM.

With `COc1cc(NS(=O)(=O)c2ccc(NC(C)=O)cc2)c(OC)cc1NC(=O)c1ccccc1` [compound 6853966] the “Antibody Inhibition” value [2] was 58% and the IC50 (RBL-2H3 mast cells [4]; [9]) was no less than 20 µM.

With `Cc1ccc(-n2c3c(cc(C(=O)NC4CC(C)(C)NC(C)(C)C4)c2=O)C(=O)CC(C)(C)C3)cc1` [compound 6866968] the “Antibody Inhibition” value [2] was 57.5% and the IC50 (RBL-2H3 mast cells [4]; [9]) was no less than 20 µM.

In the case of `COc1cccc(C2C(=C(O)c3ccc(C)cc3)C(=O)C(=O)N2CCCN2CCOCC2)c1` (stereo not shown) [compound 6882059], the “Antibody Inhibition” value [2] is reported as 79.5%, the Kd (Syk [3]; Table S1) is reported as 9.4 µM and the IC50 (RBL-2H3 mast cells [4]; [9]) is reported as no less than 20 µM.

For `COc1cccc(C2C(=C(O)c3ccccc3)C(=O)C(=O)N2CCCN2CCOCC2)c1OC` (stereo not shown) [compound 6891745], the “Antibody Inhibition” value [2] was 27.5% and the IC50 (RBL-2H3 mast cells [4]; [9]) was no less than 20 µM.

With `O=C(Nc1ccccc1C(=O)N1CCCC1)c1ccc(CN2CCc3ccccc3C2)cc1` [compound 7199725] the “Antibody Inhibition” value [2] was 25% and the IC50 (RBL-2H3 mast cells [4]; [9]) was no less than 20 µM.

With `Cc1ccc(-c2nnc(Nc3cccc(O)c3)c3ccccc23)cc1S(=O)(=O)NC(C)(C)CO` [compound 7238569] the “Antibody Inhibition” value [2] was 32% and the IC50 (RBL-2H3 mast cells [4]; [9]) was no less than 20 µM.

With `CCOC(=O)c1ccc(NC(=O)CSc2nnc(-c3ccco3)c(-c3ccco3)n2)cc1` [compound 7495334] the solubility at 5 min [6] was 35.2 µM (≈ 15.9 µg/mL), the “Antibody Inhibition” value [2] was 43% and the Kd (Syk [3]; Table 1) was 1.6 µM. For the same molecule, the IC50 (RBL-2H3 mast cells [4]; [8]) was 10 µM.

In the case of `COc1cc(-c2nnc(SCC(=O)Nc3ccc(Cl)cc3)n2CCc2ccccc2)cc(OC)c1OC` [compound 7501888], the solubility at 5 min [6] is reported as 6 µM (≈ 3.23 µg/mL), the “Antibody Inhibition” value [2] is reported as 40% and the Kd (Syk [3]; Table 1) is reported as 8.2 µM. For the same molecule, the IC50 (RBL-2H3 mast cells [4]; [8]) was 4 µM and the “toxic effect on mast cells responses” value (RBL-2H3 mast cells [7]) was “no major toxic effect”.

For `CCOC(=O)c1ccc(NC(=O)CC2C(=O)N(c3ccc(Cl)cc3)C(=S)N2Cc2cccnc2)cc1` (stereo not shown) [compound 7722851], the “Antibody Inhibition” value [2] was 39.5%, the Kd (Syk [3]; Table S1) was 21.8 µM and the IC50 (RBL-2H3 mast cells [4]; Rattus norvegicus, RBL-2H3, FcεRI-dependent degranulation of mast cells, read-out: IC50 (degranulation)) was 4 µM. For the same molecule, the “toxic effect on mast cells responses” value (RBL-2H3 mast cells [7]) was “no major toxic effect”.

With `CCOc1ccc(NC(=O)CC2C(=O)N(c3ccc(OC)cc3)C(=S)N2CCN2CCOCC2)cc1` (stereo not shown) [compound 7722914] the “Antibody Inhibition” value [2] was 19%, the Kd (Syk [3]; Table S1) was 15.6 µM and the IC50 (RBL-2H3 mast cells [4]; Rattus norvegicus, RBL-2H3, Table S1, numeric values, read-out: IC50 Cell Degranulation) was 15 µM.

With `C=CCn1c(SCC(=O)Nc2cccc(OC)c2)nnc1C(C)NC(=O)c1ccccc1` (stereo not shown) [compound 7752193] the solubility at 5 min [6] was 0.3 µM (≈ 0.135 µg/mL), the “Antibody Inhibition” value [2] was 35% and the Kd (Syk [3]; Table 1) was 8 µM. For the same molecule, the IC50 (RBL-2H3 mast cells [4]; [8]) was 10 µM.

For `C=CCn1c(CNC(=O)c2cccc(C)c2)nnc1SCC(=O)Nc1cccc(C(=O)OC(C)C)c1` [compound 7783660], the solubility at 5 min [6] was 12.9 µM (≈ 6.55 µg/mL), the “Antibody Inhibition” value [2] was 27% and the Kd (Syk [3]; Table 1) was 4.8 µM. It also gave an IC50 (RBL-2H3 mast cells [4]; [8]) of 10 µM.

With `COC(=O)c1ccc(NC(=O)CN(c2cccc(OC)c2)S(=O)(=O)c2ccccc2)cc1` [compound 7787455] the “Antibody Inhibition” value [2] was 20% and the IC50 (RBL-2H3 mast cells [4]; [10]) was no less than 20 µM.
